Assay [1] has as its target T1, M-phase inducer phosphatase 3 (Homo sapiens, UniProt P30307).
T1 sequence (P30307 whole entry): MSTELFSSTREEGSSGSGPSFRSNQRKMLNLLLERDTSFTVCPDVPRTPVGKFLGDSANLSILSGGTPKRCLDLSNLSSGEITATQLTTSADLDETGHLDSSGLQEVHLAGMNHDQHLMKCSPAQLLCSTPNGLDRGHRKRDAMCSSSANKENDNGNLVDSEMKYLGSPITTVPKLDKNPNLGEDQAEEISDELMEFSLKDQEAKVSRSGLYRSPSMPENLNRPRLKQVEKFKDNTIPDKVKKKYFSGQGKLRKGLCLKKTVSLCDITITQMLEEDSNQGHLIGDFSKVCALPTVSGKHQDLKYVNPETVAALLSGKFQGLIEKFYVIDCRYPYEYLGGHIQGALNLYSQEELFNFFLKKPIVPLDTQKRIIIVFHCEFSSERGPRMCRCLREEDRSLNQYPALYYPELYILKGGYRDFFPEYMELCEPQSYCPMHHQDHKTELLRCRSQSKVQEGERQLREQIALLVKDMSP
Briefly: In vitro inhibitory activity against human Cell division cycle 25 degree C.

Assay [2] has as its target T2, M-phase inducer phosphatase 2 (Homo sapiens, UniProt P30305).
T2 sequence (P30305 whole entry): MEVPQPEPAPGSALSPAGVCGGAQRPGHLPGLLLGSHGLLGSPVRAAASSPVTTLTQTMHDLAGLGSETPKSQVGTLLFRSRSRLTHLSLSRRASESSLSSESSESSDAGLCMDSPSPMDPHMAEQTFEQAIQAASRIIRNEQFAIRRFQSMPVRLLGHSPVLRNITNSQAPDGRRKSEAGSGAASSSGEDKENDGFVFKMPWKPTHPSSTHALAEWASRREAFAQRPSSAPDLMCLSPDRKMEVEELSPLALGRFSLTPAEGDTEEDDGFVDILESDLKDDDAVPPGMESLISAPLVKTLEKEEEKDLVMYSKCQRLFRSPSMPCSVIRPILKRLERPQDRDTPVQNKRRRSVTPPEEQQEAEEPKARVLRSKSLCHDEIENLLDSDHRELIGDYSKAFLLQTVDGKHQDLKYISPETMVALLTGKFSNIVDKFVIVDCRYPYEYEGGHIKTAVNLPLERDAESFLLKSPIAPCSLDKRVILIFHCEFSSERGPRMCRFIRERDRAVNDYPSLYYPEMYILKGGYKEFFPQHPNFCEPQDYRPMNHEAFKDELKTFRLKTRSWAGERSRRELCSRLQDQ
Briefly: In vitro inhibitory activity against human Cell division cycle 25B.

The term IC50 denotes the concentration at which inhibition is half-maximal. A lower IC50 goes with inhibition by little substance.

As for `C=C(C)CCC[C@@]1(C)CCC[C@@]2(C)C1=CC[C@H](C)[C@]2(C)C[C@@H](O)C1=CC(=O)O[C@@H]1O` (stereo in doubt; form 2), the IC50 in assay [1] and in assay [2] was > 2000 µM each time.
